Assay results taken from ChEMBL document CHEMBL4507261, “Data for DCP probe A-192621” (2021).

Legend:
[1] = target: Inhibitor of nuclear factor kappa-B kinase subunit alpha (Homo sapiens) (UniProt O15111); conditions: Compound concentration 1000.0 nM
[2] = target: Casein kinase I isoform gamma-2 (Homo sapiens) (UniProt P78368); conditions: Compound concentration 1000.0 nM
[3] = target: Adenosine receptor A2b (Homo sapiens) (UniProt P29275); assay: A2B (h) Eurofins-Cerep binding assay; parameters: ligand concentration 5 nM; conditions: filed as antagonist, Compound concentration 10.0 uM
[4] = target: Serine/threonine-protein kinase pim-3 (Homo sapiens) (UniProt Q86V86); conditions: Compound concentration 1000.0 nM
[5] = target: Serine/threonine-protein kinase MRCK beta (Homo sapiens) (UniProt Q9Y5S2); conditions: Compound concentration 1000.0 nM
[6] = system: Epidermal growth factor receptor (Homo sapiens), P00533 [G719C]; conditions: Compound concentration 1000.0 nM
[7] = target: Motilin receptor (Homo sapiens) (UniProt O43193); assay: motilin (h Eurofins-Cerep binding assay; parameters: ligand concentration 0.05 nM; conditions: filed as agonist, Compound concentration 10.0 uM
[8] = target: Insulin-like growth factor 1 receptor (Homo sapiens) (UniProt P08069); conditions: Compound concentration 1000.0 nM
[9] = target: 5'-AMP-activated protein kinase catalytic subunit alpha-2 (Homo sapiens) (UniProt P54646); conditions: Compound concentration 1000.0 nM
[10] = target: Megakaryocyte-associated tyrosine-protein kinase (Homo sapiens) (UniProt P42679); conditions: Compound concentration 1000.0 nM
[11] = target: Serine/threonine-protein kinase DCLK2 (Homo sapiens) (UniProt Q8N568); conditions: Compound concentration 1000.0 nM
[12] = target: Type-2 angiotensin II receptor (Homo sapiens) (UniProt P50052); assay: AT2 (h) Eurofins-Cerep binding assay; conditions: filed as agonist, Compound concentration 10.0 uM
[13] = target: Sulfonylurea receptors; K-ATP channels (Rattus norvegicus) (UniProt Q63563+P70673+Q63664+Q09429); assay: KATP channel Eurofins-Cerep binding assay; assay type: protein-complex assay; conditions: filed as antagonist, Compound concentration 10.0 uM
[14] = target: Tyrosine-protein kinase JAK1 (Homo sapiens) (UniProt P23458); conditions: Compound concentration 1000.0 nM
[15] = target: Cyclin-dependent kinase-like 1 (Homo sapiens) (UniProt Q00532); conditions: Compound concentration 1000.0 nM
[16] = target: Cyclin-dependent kinase 19 (Homo sapiens) (UniProt Q9BWU1); conditions: Compound concentration 1000.0 nM
[17] = target: Tyrosine-protein kinase Tec (Homo sapiens) (UniProt P42680); conditions: Compound concentration 1000.0 nM
[18] = system: Receptor-type tyrosine-protein kinase FLT3 (Homo sapiens), P36888 [N841I]; conditions: Compound concentration 1000.0 nM
[19] = target: Mitogen-activated protein kinase 14 (Homo sapiens) (UniProt Q16539); conditions: Compound concentration 1000.0 nM
[20] = target: Mitogen-activated protein kinase 11 (Homo sapiens) (UniProt Q15759); conditions: Compound concentration 1000.0 nM
[21] = target: Hormonally up-regulated neu tumor-associated kinase (Homo sapiens) (UniProt P57058); conditions: Compound concentration 1000.0 nM
[22] = target: Mitogen-activated protein kinase kinase kinase kinase 3 (Homo sapiens) (UniProt Q8IVH8); conditions: Compound concentration 1000.0 nM
[23] = target: Serine/threonine-protein kinase MRCK gamma (Homo sapiens) (UniProt Q6DT37); conditions: Compound concentration 1000.0 nM
[24] = target: Ankyrin repeat and protein kinase domain-containing protein 1 (Homo sapiens) (UniProt Q8NFD2); conditions: Compound concentration 1000.0 nM
[25] = target: Cytoplasmic tyrosine-protein kinase BMX (Homo sapiens) (UniProt P51813); conditions: Compound concentration 1000.0 nM
[26] = system: Proto-oncogene tyrosine-protein kinase receptor Ret (Homo sapiens), P07949 [V804M]; conditions: Compound concentration 1000.0 nM
[27] = system: Phosphatidylinositol 4,5-bisphosphate 3-kinase catalytic subunit alpha isoform (Homo sapiens), P42336 [C420R]; conditions: Compound concentration 1000.0 nM
[28] = target: Aurora kinase A (Homo sapiens) (UniProt O14965); conditions: Compound concentration 1000.0 nM
[29] = target: Cannabinoid receptor 1 (Homo sapiens) (UniProt P21554); assay: CB1 (h) Eurofins-Cerep binding assay; parameters: ligand concentration 0.5 nM; conditions: filed as agonist, Compound concentration 10.0 uM
[30] = target: Cyclin-dependent kinase 4 (Homo sapiens) (UniProt P11802); conditions: Compound concentration 1000.0 nM
[31] = target: Vascular endothelial growth factor receptor 2 (Homo sapiens) (UniProt P35968); conditions: Compound concentration 1000.0 nM
[32] = target: Casein kinase I isoform gamma-3 (Homo sapiens) (UniProt Q9Y6M4); conditions: Compound concentration 1000.0 nM
[33] = target: Ribosomal protein S6 kinase alpha-2 (Homo sapiens) (UniProt Q15349); conditions: Compound concentration 1000.0 nM
[34] = target: Receptor-interacting serine/threonine-protein kinase 4 (Homo sapiens) (UniProt P57078); conditions: Compound concentration 1000.0 nM
[35] = target: Ribosomal protein S6 kinase alpha-3 (Homo sapiens) (UniProt P51812); conditions: Compound concentration 1000.0 nM
[36] = target: MAP kinase-interacting serine/threonine-protein kinase 2 (Homo sapiens) (UniProt Q9HBH9); conditions: Compound concentration 1000.0 nM
[37] = target: Rho-associated protein kinase 1 (Homo sapiens) (UniProt Q13464); conditions: Compound concentration 1000.0 nM
[38] = target: Death-associated protein kinase 3 (Homo sapiens) (UniProt O43293); conditions: Compound concentration 1000.0 nM
[39] = target: Phosphatidylinositol 3-kinase catalytic subunit type 3 (Homo sapiens) (UniProt Q8NEB9); conditions: Compound concentration 1000.0 nM
[40] = target: Myosin-IIIa (Homo sapiens) (UniProt Q8NEV4); conditions: Compound concentration 1000.0 nM
[41] = target: Macrophage colony-stimulating factor 1 receptor (Homo sapiens) (UniProt P07333); conditions: Compound concentration 1000.0 nM
[42] = target: Dual specificity protein kinase CLK4 (Homo sapiens) (UniProt Q9HAZ1); conditions: Compound concentration 1000.0 nM
[43] = target: Serine/threonine-protein kinase TAO3 (Homo sapiens) (UniProt Q9H2K8); conditions: Compound concentration 1000.0 nM
[44] = target: Receptor-interacting serine/threonine-protein kinase 2 (Homo sapiens) (UniProt O43353); conditions: Compound concentration 1000.0 nM
[45] = target: G protein-coupled receptor kinase 3 (Homo sapiens) (UniProt P35626); conditions: Compound concentration 1000.0 nM
Chain of G protein-coupled receptor kinase 3 (Homo sapiens) (P35626 whole entry): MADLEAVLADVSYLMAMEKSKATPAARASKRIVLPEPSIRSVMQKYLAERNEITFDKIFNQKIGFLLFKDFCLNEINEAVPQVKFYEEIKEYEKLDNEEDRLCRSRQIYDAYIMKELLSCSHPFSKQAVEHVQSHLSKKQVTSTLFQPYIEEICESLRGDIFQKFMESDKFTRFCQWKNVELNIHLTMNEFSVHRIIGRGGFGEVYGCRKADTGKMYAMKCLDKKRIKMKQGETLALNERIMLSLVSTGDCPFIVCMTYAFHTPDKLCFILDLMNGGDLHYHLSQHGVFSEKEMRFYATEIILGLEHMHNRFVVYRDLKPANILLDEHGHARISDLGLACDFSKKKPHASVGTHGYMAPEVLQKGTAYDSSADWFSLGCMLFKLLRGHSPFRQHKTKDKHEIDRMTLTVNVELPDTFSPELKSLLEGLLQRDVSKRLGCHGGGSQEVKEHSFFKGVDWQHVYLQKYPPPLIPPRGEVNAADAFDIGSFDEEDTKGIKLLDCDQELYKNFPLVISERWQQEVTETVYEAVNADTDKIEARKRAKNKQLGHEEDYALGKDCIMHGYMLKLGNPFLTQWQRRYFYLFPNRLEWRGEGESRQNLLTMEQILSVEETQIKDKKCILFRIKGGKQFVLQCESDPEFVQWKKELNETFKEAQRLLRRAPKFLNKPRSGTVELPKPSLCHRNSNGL

Chain of Receptor-interacting serine/threonine-protein kinase 4 (Homo sapiens) (P57078 whole entry): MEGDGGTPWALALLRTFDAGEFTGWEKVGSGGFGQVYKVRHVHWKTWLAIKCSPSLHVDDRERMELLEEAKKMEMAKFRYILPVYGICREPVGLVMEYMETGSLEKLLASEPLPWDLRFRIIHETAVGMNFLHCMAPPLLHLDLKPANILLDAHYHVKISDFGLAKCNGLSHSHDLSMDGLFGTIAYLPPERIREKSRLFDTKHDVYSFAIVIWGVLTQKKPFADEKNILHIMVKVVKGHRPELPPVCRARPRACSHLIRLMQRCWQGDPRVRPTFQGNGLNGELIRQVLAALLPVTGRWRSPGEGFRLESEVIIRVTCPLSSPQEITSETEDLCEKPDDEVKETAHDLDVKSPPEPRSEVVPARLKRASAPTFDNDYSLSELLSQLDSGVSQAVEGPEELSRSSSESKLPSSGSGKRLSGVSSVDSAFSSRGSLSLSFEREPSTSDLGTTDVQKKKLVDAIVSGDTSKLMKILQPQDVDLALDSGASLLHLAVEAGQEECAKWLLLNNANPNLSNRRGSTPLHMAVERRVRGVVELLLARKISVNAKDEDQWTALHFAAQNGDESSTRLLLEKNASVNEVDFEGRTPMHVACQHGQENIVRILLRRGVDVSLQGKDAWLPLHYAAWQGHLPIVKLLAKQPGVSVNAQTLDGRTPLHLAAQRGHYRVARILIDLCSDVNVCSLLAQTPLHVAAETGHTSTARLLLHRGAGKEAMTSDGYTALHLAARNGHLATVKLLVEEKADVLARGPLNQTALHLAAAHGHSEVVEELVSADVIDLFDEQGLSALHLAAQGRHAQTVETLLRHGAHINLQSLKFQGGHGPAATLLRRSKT
Chain of Mitogen-activated protein kinase 14 (Homo sapiens) (Q16539 whole entry): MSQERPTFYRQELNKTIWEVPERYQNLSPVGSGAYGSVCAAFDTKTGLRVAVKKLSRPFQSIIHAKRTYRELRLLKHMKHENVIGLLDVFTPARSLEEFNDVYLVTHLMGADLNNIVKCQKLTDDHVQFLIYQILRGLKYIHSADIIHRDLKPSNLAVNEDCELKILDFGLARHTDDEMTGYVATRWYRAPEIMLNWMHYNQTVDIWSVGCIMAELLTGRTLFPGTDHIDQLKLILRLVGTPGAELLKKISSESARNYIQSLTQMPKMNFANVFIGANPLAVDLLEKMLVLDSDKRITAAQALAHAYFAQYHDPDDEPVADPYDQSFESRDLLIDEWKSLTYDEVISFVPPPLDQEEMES
Chain of 5'-AMP-activated protein kinase catalytic subunit alpha-2 (Homo sapiens) (P54646 whole entry, looked up): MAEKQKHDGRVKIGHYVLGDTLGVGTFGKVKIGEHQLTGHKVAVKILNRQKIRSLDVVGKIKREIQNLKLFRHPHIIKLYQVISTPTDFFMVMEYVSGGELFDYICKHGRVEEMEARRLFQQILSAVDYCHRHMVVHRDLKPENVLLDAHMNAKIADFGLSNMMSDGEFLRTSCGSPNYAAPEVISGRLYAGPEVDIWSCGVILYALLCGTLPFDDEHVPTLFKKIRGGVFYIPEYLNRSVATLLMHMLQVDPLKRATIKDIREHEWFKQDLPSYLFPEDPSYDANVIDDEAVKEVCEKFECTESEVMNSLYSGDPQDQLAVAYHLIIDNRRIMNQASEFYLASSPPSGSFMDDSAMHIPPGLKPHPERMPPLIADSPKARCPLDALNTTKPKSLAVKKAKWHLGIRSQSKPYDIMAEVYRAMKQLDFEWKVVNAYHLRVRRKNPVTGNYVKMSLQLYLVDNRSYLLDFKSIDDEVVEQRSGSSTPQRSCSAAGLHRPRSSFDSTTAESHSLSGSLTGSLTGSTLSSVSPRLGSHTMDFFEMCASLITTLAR
Chain of Ribosomal protein S6 kinase alpha-2 (Homo sapiens) (Q15349 whole entry): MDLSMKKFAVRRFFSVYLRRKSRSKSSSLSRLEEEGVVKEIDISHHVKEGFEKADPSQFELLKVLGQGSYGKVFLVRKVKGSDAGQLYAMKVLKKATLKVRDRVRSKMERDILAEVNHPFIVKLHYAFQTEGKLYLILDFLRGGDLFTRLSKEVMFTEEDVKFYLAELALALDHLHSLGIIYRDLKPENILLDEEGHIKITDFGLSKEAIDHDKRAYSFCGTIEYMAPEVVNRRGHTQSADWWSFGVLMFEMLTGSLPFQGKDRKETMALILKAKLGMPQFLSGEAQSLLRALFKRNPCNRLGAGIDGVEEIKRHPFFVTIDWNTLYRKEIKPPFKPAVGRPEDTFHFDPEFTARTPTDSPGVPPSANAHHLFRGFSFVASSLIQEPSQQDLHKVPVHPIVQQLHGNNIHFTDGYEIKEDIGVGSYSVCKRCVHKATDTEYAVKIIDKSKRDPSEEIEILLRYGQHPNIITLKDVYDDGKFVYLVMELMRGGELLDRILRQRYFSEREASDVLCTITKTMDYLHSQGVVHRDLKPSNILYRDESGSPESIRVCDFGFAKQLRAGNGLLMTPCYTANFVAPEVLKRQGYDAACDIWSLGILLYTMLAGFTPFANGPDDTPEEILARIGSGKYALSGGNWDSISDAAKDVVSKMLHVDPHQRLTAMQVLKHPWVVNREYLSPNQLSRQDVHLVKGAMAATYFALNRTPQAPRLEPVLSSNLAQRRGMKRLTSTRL
Chain of Inhibitor of nuclear factor kappa-B kinase subunit alpha (Homo sapiens) (O15111 whole entry, canonical isoform): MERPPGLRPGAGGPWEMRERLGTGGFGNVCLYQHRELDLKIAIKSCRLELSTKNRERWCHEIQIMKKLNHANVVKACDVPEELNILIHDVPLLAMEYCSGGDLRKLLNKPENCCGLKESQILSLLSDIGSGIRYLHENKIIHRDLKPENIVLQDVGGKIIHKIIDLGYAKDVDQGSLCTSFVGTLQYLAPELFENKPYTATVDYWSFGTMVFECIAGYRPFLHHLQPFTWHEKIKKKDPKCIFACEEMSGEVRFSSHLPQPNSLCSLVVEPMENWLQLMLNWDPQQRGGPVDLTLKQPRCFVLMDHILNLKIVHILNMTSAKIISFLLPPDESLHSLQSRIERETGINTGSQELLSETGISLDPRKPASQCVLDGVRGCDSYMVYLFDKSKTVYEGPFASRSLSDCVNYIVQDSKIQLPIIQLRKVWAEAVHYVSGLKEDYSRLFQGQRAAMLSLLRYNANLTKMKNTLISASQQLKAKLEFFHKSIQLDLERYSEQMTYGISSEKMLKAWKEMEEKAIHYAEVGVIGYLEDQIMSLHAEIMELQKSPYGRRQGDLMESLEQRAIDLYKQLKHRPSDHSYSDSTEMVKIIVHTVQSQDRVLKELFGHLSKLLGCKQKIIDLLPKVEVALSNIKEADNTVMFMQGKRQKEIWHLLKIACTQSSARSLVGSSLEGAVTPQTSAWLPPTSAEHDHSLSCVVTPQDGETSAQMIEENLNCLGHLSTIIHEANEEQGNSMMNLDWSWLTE
Chain of Serine/threonine-protein kinase DCLK2 (Homo sapiens) (Q8N568 whole entry): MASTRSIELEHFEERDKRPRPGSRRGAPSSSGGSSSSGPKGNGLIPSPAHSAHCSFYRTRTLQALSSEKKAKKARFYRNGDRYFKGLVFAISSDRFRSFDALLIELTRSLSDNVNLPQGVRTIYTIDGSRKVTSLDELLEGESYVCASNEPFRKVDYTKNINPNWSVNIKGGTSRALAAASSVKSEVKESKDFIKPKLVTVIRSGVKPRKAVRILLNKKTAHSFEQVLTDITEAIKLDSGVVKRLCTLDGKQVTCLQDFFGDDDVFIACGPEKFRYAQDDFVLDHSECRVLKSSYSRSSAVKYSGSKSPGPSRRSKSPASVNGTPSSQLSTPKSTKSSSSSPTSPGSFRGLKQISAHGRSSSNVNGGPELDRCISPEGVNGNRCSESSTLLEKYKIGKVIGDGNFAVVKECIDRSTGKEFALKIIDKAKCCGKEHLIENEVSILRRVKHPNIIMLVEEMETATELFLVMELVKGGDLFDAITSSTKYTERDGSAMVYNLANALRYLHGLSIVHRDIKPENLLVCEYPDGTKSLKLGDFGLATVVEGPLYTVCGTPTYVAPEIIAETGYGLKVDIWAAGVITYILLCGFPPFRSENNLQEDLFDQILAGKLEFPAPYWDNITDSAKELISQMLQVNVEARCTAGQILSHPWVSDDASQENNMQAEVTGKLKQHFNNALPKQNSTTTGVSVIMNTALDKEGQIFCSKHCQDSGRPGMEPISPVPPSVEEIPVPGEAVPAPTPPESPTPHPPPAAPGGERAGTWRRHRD

Structure (SMILES): CCCOc1ccc([C@H]2[C@H](C(=O)O)[C@@H](c3ccc4c(c3)OCO4)CN2CC(=O)Nc2c(CC)cccc2CC)cc1 [A-192621]
- residual activity [1]: 77%
- residual activity [2]: 100%
- % Inhibition of Control Specific Binding (Mean n=2) [3]: -6.1%
- residual activity [4]: 88%
- residual activity [5]: 87%
- residual activity [6]: 95%
- % Inhibition of Control Specific Binding (Mean n=2) [7]: -17.9%
- residual activity [8]: 89%
- residual activity [9]: 100%
- residual activity [10]: 83%
- residual activity [11]: 77%
- % Inhibition of Control Specific Binding (Mean n=2) [12]: 2.5%
- % Inhibition of Control Specific Binding (Mean n=2) [13]: 11.1%
- residual activity [14]: 95%
- residual activity [15]: 66%
- residual activity [16]: 95%
- residual activity [17]: 100%
- residual activity [18]: 93%
- residual activity [19]: 99%
- residual activity [20]: 95%
- residual activity [21]: 100%
- residual activity [22]: 85%
- residual activity [23]: 79%
- residual activity [24]: 65%
- residual activity [25]: 100%
- residual activity [26]: 100%
- residual activity [27]: 95%
- residual activity [28]: 93%
- % Inhibition of Control Specific Binding (Mean n=2) [29]: 15.4%
- residual activity [30]: 89%
- residual activity [31]: 77%
- residual activity [32]: 100%
- residual activity [33]: 82%
- residual activity [34]: 69%
- residual activity [35]: 72%
- residual activity [36]: 74%
- residual activity [37]: 65%
- residual activity [38]: 89%
- residual activity [39]: 78%
- residual activity [40]: 100%
- residual activity [41]: 90%
- residual activity [42]: 100%
- residual activity [43]: 81%
- residual activity [44]: 100%
- residual activity [45]: 73%

Structure (SMILES): CCCOc1ccc([C@@H]2[C@@H](C(=O)O)[C@H](c3ccc4c(c3)OCO4)CN2CC(=O)Nc2c(CC)cccc2CC)cc1 [A-1806262]
- residual activity [1]: 86%
- residual activity [2]: 96%
- % Inhibition of Control Specific Binding (Mean n=2) [3]: -8.6%
- residual activity [4]: 95%
- residual activity [5]: 97%
- residual activity [6]: 98%
- % Inhibition of Control Specific Binding (Mean n=2) [7]: 4.4%
- residual activity [8]: 88%
- residual activity [9]: 95%
- residual activity [10]: 90%
- residual activity [11]: 85%
- % Inhibition of Control Specific Binding (Mean n=2) [12]: 20.8%
- % Inhibition of Control Specific Binding (Mean n=2) [13]: 6%
- residual activity [14]: 100%
- residual activity [15]: 77%
- residual activity [16]: 89%
- residual activity [17]: 96%
- residual activity [18]: 88%
- residual activity [19]: 100%
- residual activity [20]: 98%
- residual activity [21]: 70%
- residual activity [22]: 100%
- residual activity [23]: 57%
- residual activity [24]: 73%
- residual activity [25]: 100%
- residual activity [26]: 94%
- residual activity [27]: 100%
- residual activity [28]: 94%
- % Inhibition of Control Specific Binding (Mean n=2) [29]: -1.6%
- residual activity [30]: 96%
- residual activity [31]: 72%
- residual activity [32]: 100%
- residual activity [33]: 81%
- residual activity [34]: 100%
- residual activity [35]: 95%
- residual activity [36]: 87%
- residual activity [37]: 81%
- residual activity [38]: 79%
- residual activity [39]: 88%
- residual activity [40]: 100%
- residual activity [41]: 100%
- residual activity [42]: 89%
- residual activity [43]: 100%
- residual activity [44]: 84%
- residual activity [45]: 100%
